In PubChem BioAssay AID1159536 (DiRusso Lab, Biochemistry Department, University of Nebraska, 2015):
Results filed as inconclusive are left out. The source made the active and inactive calls. How the calls were made is not given here.

System: Chlamydomonas reinhardtii, Nile Red lipid fluorescence, 72 h
Experiment: compounds raising TAG storage in Chlamydomonas – qHTS, Chlamydomonas reinhardtii, dose response (AID 1159536)

Structure (SMILES)	EC50
CCc1cccc(OCC(=O)Nc2cc(OC)c(OC)cc2C(=O)O)c1	1.38 µM
COc1ccc(OC)c(CN2CCN(Cc3ccc([N+](=O)[O-])cc3)CC2)c1	1.35 µM
CC(=O)c1nc2cc([N+](=O)[O-])ccc2n1Cc1ccccc1	10 µM (inactive)
CCOc1ccc(CN2CCN(c3ccc(F)cc3)CC2)cc1	0.241 µM
O=C(Nc1ccccc1)Nc1ccccc1C(=O)N1CCOCC1	22.2 µM (inactive)
Oc1ccc(Br)cc1CN1CCN(CC2CC3C=CC2C3)CC1 (centres undefined)	9.95 µM
c1cc2c(cc1CNC1CCCC1)OCO2	10.7 µM
Cc1ccc(OCCCCN2CCCC2)c(Br)c1	2.65 µM
Fc1ccccc1N1CCN(CC2CCCCC2)CC1	10.5 µM
C(=C\c1ccccc1)/CN1CCN(C2CCc3ccccc3C2)CC1 (centres undefined)	9.92 µM
Clc1ccc(Cl)c(OCCCCN2CCNCC2)c1	5.34 µM
O=[N+]([O-])c1ccc(OCCCCN2CCOCC2)cc1	14.2 µM
C/C=C(\C)CN1CCN(c2ccc(C)cc2)CC1	4.18 µM
Clc1ccc(OCCCCN2CCOCC2)c(Br)c1	0.854 µM
Oc1ccc(CN2CCN(c3ccccc3Cl)CC2)cc1	0.632 µM
CC(=O)NC1=C(N2CCN(Cc3ccccc3)CC2)C(=O)c2ccccc2C1=O	14.3 µM (inactive)
Cn1c(SCC(=O)NCc2ccccc2)nnc1-c1ccc(C(C)(C)C)cc1	7.31 µM (inactive)
Fc1ccc(N2CCN(Cc3ccccc3)CC2)cc1	1.37 µM
CCC(CC)C(=O)Nc1ccc(C(=O)Nc2nccs2)cc1	1.83 µM (inactive)
CN1CCN(Cc2cccc(Oc3ccccc3)c2)CC1	9.98 µM
COc1ccc(OCCCN2CCCC(C)C2)cc1 (centres undefined)	12.5 µM
Cc1ccc2nc(SCc3ccccc3)c(C=O)c(=O)n2c1	4.11 µM
CN(c1ccc(C(=O)NC2CCCCCC2)cc1)S(=O)(=O)c1ccccc1	4.98 µM
Cc1ccc(S(=O)(=O)n2cccn2)cc1	12.9 µM (inactive)
c1ccc(N2CCN(CC3CCCCC3)CC2)cc1	1.03 µM
CCC(C)c1ccc(OCCCN2CCN(C)CC2)cc1 (centres undefined)	0.902 µM

Structure (SMILES)	EC50
C=CCNCC(=O)NC12CC3CC(CC(C3)C1)C2	2.81 µM
Cc1ccc(C)c(N2CCN(C3CCCCCC3)CC2)c1	10 µM
COc1ccc(CN2CCN(Cc3ccccc3)CC2)c(OC)c1OC	11.6 µM
O=[N+]([O-])c1ccc(CN2CCN(C3CCCC3)CC2)cc1	0.0669 µM
Cc1cc(I)ccc1S(=O)(=O)NCCCN1CCOCC1	1.28 µM
O=C(Nc1ccccc1C(=O)Nc1ccccc1Cl)c1ccncc1	9.55 µM
O=C(Nc1cccnc1)c1ccc(S(=O)(=O)c2ccc(Cl)cc2)cc1	6.72 µM (inactive)
CC(=O)N(C1=C(N(C)C)C(=O)c2ccccc2C1=O)c1ccc(Cl)c(Cl)c1	2.65 µM (inactive)
CC(C)(C)C1CCC(NCc2ccncc2)CC1 (centres undefined)	3.53 µM
C/C=C(\C)CN1CCN(C/C=C/c2ccccc2)CC1	1.28 µM
Clc1ccccc1-c1nnc(-c2ccccc2)o1	2.7 µM
COc1ccccc1C(=O)N1CCN(C(=O)C(c2ccccc2)c2ccccc2)CC1	5.62 µM (inactive)
CN1CCN(c2ccc([N+](=O)[O-])c(N3CCCCC3)c2)CC1	10.1 µM
Cc1ccc(C(=O)NC(C)C2CC3CCC2C3)s1 (centres undefined)	15.3 µM (inactive)
C(#CC12CC3CC(CC(C3)C1)C2)CN1CCOCC1	3.27 µM
COc1cccc(CN2CCN(Cc3ccc(F)cc3)CC2)c1OC	0.651 µM
Clc1ccc(OCCOCCN2CCOCC2)c(Br)c1	7.9 µM
CCc1ccc(CN2CCN(c3ccccc3C)CC2)cc1	1.33 µM (inactive)
C=CCc1cc(Cl)ccc1OCCN1CCN(C)CC1	14.1 µM
COc1ccc(CN(C)C2CCCCC2)c(C)c1C	0.608 µM
Clc1cccc(N2CCN(Cc3ccsc3)CC2)c1	3.96 µM
COc1ccc(OCCCN2CCCCC2)cc1	13.8 µM
CC1CCCN(C(=O)COc2ccc(Cl)cc2)C1 (centres undefined)	1.26 µM
CC1CCN(S(=O)(=O)c2ccc(NC(=O)c3cccc([N+](=O)[O-])c3)cc2)CC1	2.7 µM
CN1CCCN(CC2=CC[C@H]3C[C@@H]2C3(C)C)CC1	10.1 µM
C/C(=C\c1ccccc1)CN(C)CCN(C)C	2.65 µM

Structure (SMILES)	EC50
Cc1ccc(CN2CCN(CCO)CC2)cc1	16.1 µM
COc1ccc(CN(C)C2CCCCC2)cc1	2.79 µM
Cc1ccc(C(=O)c2ccc(N3CCN(C)CC3)c(F)c2)cc1C	13.4 µM (inactive)
CN(CCc1ccccc1)C1CCN(Cc2ccccc2)CC1	0.0218 µM
Clc1ccc(OCCOCCN2CCCC2)c(Br)c1	2.6 µM
O=C(CN1CCCCC1)NC12CC3CC(CC(C3)C1)C2	3.47 µM
CN1CCN(CCCOc2ccc(Br)cc2)CC1	9.74 µM
Cc1ccc(NC(=O)CSc2nnc(-c3ccc(Cl)cc3Cl)n2N)c(C)c1	2.46 µM (inactive)
O=C(O)CCSCC(=O)c1ccc(NS(=O)(=O)c2ccccc2)cc1	30.6 µM (inactive)
CCN1CCN(C(=O)c2ccc(C(C)(C)C)cc2)CC1	1.4 µM
O=[N+]([O-])c1ccc(CNC2CCCC2)cc1	0.645 µM
OC(COc1ccc(Cl)cc1Cl)CN1CCN(Cc2ccccc2)CC1 (centres undefined)	7.67 µM
C=CCc1cccc(C)c1OCCCN1CCN(C)CC1	1.97 µM
O=C(CN1CCCCC1)NCC12CC3CC(CC(C3)C1)C2	9.27 µM
CC(C(=O)NCc1ccc(Cl)cc1)N(c1ccccc1)S(C)(=O)=O (centres undefined)	11.3 µM (inactive)
Cc1c(NC(=O)c2c(F)c(F)c(F)c(F)c2F)c(=O)n(-c2ccccc2)n1C	19 µM (inactive)
CCN(CC)CC#Cc1ccc(C#CCN(CC)CC)cc1	4.15 µM
O=[N+]([O-])c1ccccc1S(=O)(=O)N1CCN(C2CCN(Cc3ccccc3)CC2)CC1	10.7 µM
Oc1ccc(CN2CCN(Cc3ccccc3)CC2)cc1	11.2 µM
CCOc1ccccc1C(=O)NC1CC1	26.5 µM (inactive)
CCN(CC)c1cc(C)nc(N)n1	2.53 µM (inactive)
O=C(Nc1ccc(Br)cc1)c1ccccc1Cl	9.96 µM
Brc1ccc2ncnc(N3CCN(Cc4ccccc4)CC3)c2c1	2.02 µM
c1ccc(CN2CCN(C3CC4CCC3C4)CC2)cc1 (centres undefined)	10.1 µM
CN1CCN(CCCOc2cc(Cl)ccc2Cl)CC1	14.1 µM
COc1cc(C(=O)Nc2ccc(S(=O)(=O)Nc3ncccn3)cc2)cc(OC)c1OC	30.9 µM (inactive)

Structure (SMILES)	EC50
CCN(CC)CC(=O)Nc1ccc(Br)cc1	10.6 µM
CC(C)c1ccc(CN2CCN(C)CC2)cc1	3.5 µM
c1coc(CN2CCN(C3CCCCCC3)CC2)c1	4.76 µM
COc1ccc(CN2CCN(Cc3ccc([N+](=O)[O-])cc3)CC2)cc1OC	2.49 µM
O=[N+]([O-])c1ccc(CNC2CCCCCC2)cc1	1.88 µM
COc1ccc(CN(C)C2CCCCC2)cc1C	2.69 µM
Fc1ccc(N2CCN(Cc3ccsc3)CC2)cc1	8.16 µM
Oc1ccc(Br)cc1CN1CCC(N2CCOCC2)CC1	22.8 µM
CCC(C)c1ccc(OCCN2CCCC2)cc1 (centres undefined)	5.17 µM
COc1ccc(CN2CCN(CC3CC4C=CC3C4)CC2)cc1OC (centres undefined)	3.91 µM
COc1ccccc1N1CCN(Cc2ccc(F)cc2)CC1	2.84 µM
Nc1ccc(F)cc1C(=O)c1ccccc1	7.05 µM
Cc1ccccc1N1CCN(Cc2ccc(F)cc2)CC1	1.35 µM
CCN(Cc1ccccc1)C(=O)C1CCN(CCCc2ccccc2)CC1	1.3 µM
COc1ccccc1N1CCN(C2CCN(CC3CC4C=CC3C4)CC2)CC1 (centres undefined)	10.5 µM
O=C(Nc1ccc(Cc2ccncc2)cc1)c1ccc([N+](=O)[O-])cc1Cl	1.21 µM (inactive)
Fc1ccc(CN2CCN(c3cccc(Cl)c3)CC2)cc1	1.29 µM
c1ccc(N2CCN(Cc3ccsc3)CC2)cc1	0.652 µM
CC(C)=CCC[C@H](C)CCN1CCN(C)CC1	10 µM
CC1CCC(N2CCN(Cc3ccccc3)CC2)CC1 (centres undefined)	5.57 µM
COc1ccc(C(=O)NCCN2CCOCC2)cc1[N+](=O)[O-]	5.99 µM (inactive)
O=C(c1ccc(CN2CCc3ccccc3C2)cc1)N1CCN(c2ccccc2F)CC1	6.04 µM
Cc1cccc(N2CCN(Cc3ccc([N+](=O)[O-])cc3)CC2)c1C	10.9 µM
C(=C\c1ccccc1)/CN1CCN(CC2CCCCC2)CC1	0.644 µM
CCc1ccc(OCCOCCN2CCOCC2)cc1	10.1 µM
O=C(c1ccccc1)c1ccc(OCCCCn2ccnc2)cc1	1.33 µM (inactive)

Structure (SMILES)	EC50
COc1ccccc1N1CCN(Cc2ccc(C)cc2)CC1	3.65 µM
COc1ccc(CNC2CCSC2)cc1 (centres undefined)	0.314 µM
Cc1ccc(CN2CCN(c3ccc(F)cc3)CC2)cc1	0.00439 µM
CCN1CCN(C2CCC(C)CC2)CC1 (centres undefined)	9.97 µM
CC1(C)CC(NC(=O)Cc2ccccc2[N+](=O)[O-])CC(C)(C)N1	10.3 µM (inactive)
CCCCOc1ccc(CN2CCN(c3ccc([N+](=O)[O-])cc3)CC2)cc1	2.7 µM
O=[N+]([O-])c1ccccc1CN1CCN(CC2CC3C=CC2C3)CC1 (centres undefined)	11.7 µM (inactive)
Cc1cccc(OCCCCN2CCOCC2)c1	2.69 µM
Oc1ccc(Cl)cc1CN1CCN(Cc2ccccc2)CC1	3.56 µM
CCC(C)c1ccccc1OCCOCCN1CCOCC1 (centres undefined)	13.1 µM
Cc1cc(C)c(NC(=O)COc2ccccc2[N+](=O)[O-])c(C)c1	3.13 µM (inactive)
C(#CCN1CCCCC1)COc1ccccc1	4.84 µM
CCOc1c(Cl)cc(C(=O)Nc2cccc([N+](=O)[O-])c2)cc1Cl	13.4 µM (inactive)
C=C(C)CN(CC)C(=O)C1CCN(CC2CC=CCC2)CC1 (centres undefined)	2.73 µM
O=[N+]([O-])c1ccc(CN2CCN(Cc3ccccc3F)CC2)cc1	8.4 µM
Fc1ccc(CN2CCN(c3ccccc3Cl)CC2)cc1	1.4 µM
CCC(C)c1ccccc1OCCCN1CCOCC1 (centres undefined)	3.72 µM
CN(CCC#N)C12CC3CC(CC(C3)C1)C2	8.62 µM
COc1ccc(CNC2CCCC(C)C2)cc1 (centres undefined)	7.06 µM
OC(COc1ccccc1Br)CN1CCCCC1 (centres undefined)	7.57 µM
Oc1ccc(CN2CCN(c3cccc(Cl)c3)CC2)cc1	0.0276 µM
Cc1ccc(CN2CCC(C(=O)N3CCN(c4ccccc4F)CC3)CC2)o1	7.9 µM (inactive)
C(=C\c1ccccc1)/CN1CCN(C2C3CC4CC(C3)CC2C4)CC1 (centres undefined)	3.99 µM
Brc1ccc(CN2CCN(c3ccccc3)CC2)cc1	22 µM
Cc1ccc(C(C)C)cc1OCCOCCN1CCOCC1	2.18 µM
